For series [1] the following is noted: Guinea Pig; cited from earlier work.
Series [2] has as its system PC12 cells. In words: Mitochondrial membrane potential (ΔΨm) by TMRE fluorescence. In kind it is cell-based, Rat. As to conditions: 25 μM Aβ25-35; pretreatment of EGT (0.5 mM, 1 mM). Here is the method: To measure the mitochondrial membrane potential (ΔΨm), the lipophilic cationic probe TMRE was used. After treatment with Aβ25-35 (25 μM) for 24 h in the presence or absence of EGT, cells (1×10^4 cells/1 ml in 4-well chamber) were rinsed with PBS, and TME (150 nM) was loaded. After 30 min incubation at 37° C., cells were examined under a confocal microscope (LEICA TCS SP).

The subject of a further series is Bax and Bcl-XL. Description: Western blot, levels of Bax and Bcl-XL. In kind it is cell-based, Rat. The settings on record: 25 μM Aβ25-35, 36 h. The method, then: After treatment, cells (1×10^7 cells/7 ml in 100φ dish) were collected and washed with PBS. After centrifugation, cell lysis was carried out at 4° C. by vigorous shaking for 15 min in RIPA buffer (150 mM NaCl, 1% NP-40, 0.5% sodium deoxycholate, 0.1% SDS, 50 mM Tris-HCl (pH 7.4), 50 mM glycerphosphate, 20 mM NaF, 20 mM EGTA, 1 mM DTT, 1 mM Na3VO4 and protease inhibitors). After centrifugation at 15,000 rpm for 15 min, supernatant was separated and stored at −70° C. until use. The protein concentration was determined by using the bicinchrinic acid (BCA) protein assay kit (Pierce, Rockford, Ill., USA). After addition of sample loading buffer, protein samples were electrophoresed on a 12.5% SDS-polyacrylamide gel. Proteins were transferred to polyvinylidene difluoride blots at 300 mA for 3 h. The blots were blocked for 1 h at room temperature in fresh blocking buffer (0.1% Tween-20 in Tris-buffered saline, pH 7.4 containing 5% non-fat dried milk). Dilutions (1:1000) of primary anti-poly(ADP-ribose)polymerase (PARP), anti-Bcl-XL and anti-Bax antibodies were made in PBS with 3% non-fat dry milk. Following three washes with PBST (PBS and 0.1% Tween-20), the blots were incubated with horseradish peroxidase-conjugated secondary antibodies in PBS with 3% non-fat dry milk for 1 h at room temperature. […]

For series [3], the system named is PC12 cells. Description: MTT dye reduction assay, Aβ25-35-induced cytotoxicity. In kind it is cell-based, Rat. The settings on record: 1 mM EGT, added 30 min prior to Aβ25-35; 36 h. The method, then:
PC12 cells were maintained in DMEM supplemented with 10% heat-inactivated horse serum and 5% fetal bovine serum at 37° C. in a humidified atmosphere of 10% CO2/90% air. All cells were cultured in poly-D-lysine coated culture dishes. The medium was changed every other day, and cells were plated at an appropriate density according to each experimental scale. After 24 h subculture, cells were switched to serum-free N-2 defined medium for treatment. For determination of cell viability, PC12 cells were initially plated at a density of 4×10^4 cells/300 μl in 48-well plates, and the cell viability was determined by the conventional MTT reduction and the lactate dehydrogenase (LDH) release assay as described below.
(§1) The MTT assay is a sensitive measurement of the normal metabolic status of cells, particularly that of mitochondria, which reflects early cellular redox changes. After incubation, cells were treated with the MTT solution (final concentration, 1 mg/ml) for 2 h. The dark blue formazan crystals formed in intact cells were dissolved in DMSO, and absorbance at 570 nm was measured with a microplate reader. Results were expressed as the percentage (%) of MTT reduction, assuming that the absorbance of control cells was 100%.

The subject of series [4] is PC12 cells. Description: Cell death induced by the NO releasing compound SNP (MTT). In kind it is cell-based, Rat. As to conditions: MTT reduction assay. The method, then:
as §1
For orientation: Tetrazolium assays rely on reduction of a dye to a coloured formazan, in cell work by metabolically active cells.

The conditions of series [5]: Cat; cited from earlier work.
The next series has as its system p65. In words: Immunocytochemistry, nuclear translocation of p65. The settings on record: Aβ25-35 for 1 h. In kind it is cell-based, Rat.
Series [6] relates to retinal neurons in the retinal ganglion cell layer. Description: NMDA retinal model (intravitreal NMDA, cell counts in retinal wholemounts). In kind it is in vivo, Sprague-Dawley rats. Here is the method: Young adult female Sprague-Dawley rats were used in the present experiments. The animals were supplied by Harlan, England and maintained in the Comparative Biology Unit at Charing Cross Hospital Campus, Imperial College. Animal procedures used were in accordance to regulations of Home Office, UK. The animals were divided into four groups. The first group consists of 6 normal rats that received no treatment. A further 9 animals were anesthetized with. Hypnorm™ (0.02 mg of fentanyl citrate and 0.54 mg fluanisone/100 g body weight) and Hypnovel™ (0.27 mg midazolam/100 g body weight) before they received unilateral intravitreal injection of 5 μl of 4 mM NMDA to the vitreous body of the left eyes, with the uninjected right eyes served as controls. Six of the experimental animals injected with NMDA received an additional intraperitoneal injection of L-ergothioneine 0.2 ml of 70 mg/ml (n=3), or phosphate buffer saline (PBS) as vehicle control 24 h and 30 min before injection of NMDA.
Further intraperitoneal injection of L-ergothioneine, or PBS was performed at 1 h, 24 h, 48 h and 72 h time points, and 3 injections per week for another three weeks. Six weeks after injection of NMDA, all animals were anaesthetized deeply again and perfused with physiological saline followed by 4% paraformaldehyde in phosphate buffer (pH 7.4). The eyeballs were collected in the same fixative and post-fixed for another half an hour before the retinas were dissected out in PBS. For each retina, four radial cuts were made before the retinas were flatly mounted onto gelatin-coated slides, and air-dried slowly in a moist chamber for 2-3 days.
The retinal whole-mounts were then stained for cresyl violet and cover slipped. Analysis was performed under a Wild microscope equipped with a camera lucida drawing tube. The number of retinal neurons in the retinal ganglion cell layer was counted and cell sizes measured at a magnification of 300× and in an area of 150×150 μm in the central, intermediate and peripheral parts of the four retinal quadrants. The neurons counted were divided into two groups with somata smaller than 6 μm, or equal to or larger than 6 μm in diameter. The majority of larger neurons are retinal ganglion cells while smaller somata are primarily non-ganglion cells or displaced amacrine cells (Perry (1981) Neuroscience 6:931-944). The numbers of cells were: counted in a total of 12 fields of individual retinas an analyzed statistically. The data is expressed as mean±S.E.M. Differences between values were compared by one-way analysis of variance (ANOVA).

The mark [7] stands for this setting: NMDA-injected retina, L-ergothioneine i.p. 0.2 ml of 70 mg/ml, 6 weeks after NMDA.
Where [8] appears, read: uninjected control eyes of L-ergothioneine treated animals.

Read-outs that look alike come from different tables or passages of the source.

For the molecule `C[N+](C)(C)[C@@H](Cc1c[nH]c(=S)[nH]1)C(=O)[O-]` [L-ergothioneine, 2-mercaptohistidine trimethylbetaine], the “L-Ergothioneine Concentration (mg/100 ml blood)” value in series [1] is on record as 1-4 mg/100 ml blood. Moreover, in the series on PC12 cells [2], the “Aβ25-35-induced dissipation of ΔΨm” value is “significantly blocked”. In the series with Bax and Bcl-XL, the “ratio of Bax to Bcl-XL” value is “substantially reduced”. Moreover, the “cytotoxic effect of Aβ25-35 (MTT reduction)” value with PC12 cells [3] is reported as “inhibited”. For the same molecule, the “cell death mediated by the NO donor SNP” value with PC12 cells [4] was “failed to attenuate”. For the same molecule, the “L-Ergothioneine Concentration (mg/100 ml blood)” value in series [5] is recorded as 0.5-2 mg/100 ml blood. For the same molecule, the “Aβ25-35-induced nuclear translocation of p65” value in the series on p65 is “inhibitory effect”. The neuroprotective effect result in series [6] (NMDA retinal model, versus PBS) is listed as “significant neuroprotective effect”. For the same molecule, in series [6] (setting [7]), the “loss of ganglion cells” value amounted to 44% and the “loss of small or non-ganglion cells” value is recorded as 31%. Further, in series [6] (setting [8]), the “loss of ganglion cells” value turned out to be 7% and the “loss of non-ganglion cells” value came to 4%.

Values taken from patent US20080107603A1, “Neuroprotectant methods, compositions, and screening methods thereof” (priority 2002, published 2008).
